Data published in patent US11919883B2, “Metalloenzyme inhibitor compounds” (Ji Xing Pharmaceuticals Hong Kong Limited, priority 2016, dated 2024).
Like-named read-outs stand apart in the source and are kept apart here.

Columns and labels:
[1] = biological target: T1, recombinant human CYP11B1 (Homo sapiens, UniProt P15538); experiment: CYP11B1 enzyme assay, enzyme enriched microsomes from V79-4 cells, cortisol by LC-MS; type: biochemical
T1 construct: made in house; host or cells: V79-4 cells (enzyme enriched microsomal fraction of cell lysates)
T1 sequence (P15538 25-503): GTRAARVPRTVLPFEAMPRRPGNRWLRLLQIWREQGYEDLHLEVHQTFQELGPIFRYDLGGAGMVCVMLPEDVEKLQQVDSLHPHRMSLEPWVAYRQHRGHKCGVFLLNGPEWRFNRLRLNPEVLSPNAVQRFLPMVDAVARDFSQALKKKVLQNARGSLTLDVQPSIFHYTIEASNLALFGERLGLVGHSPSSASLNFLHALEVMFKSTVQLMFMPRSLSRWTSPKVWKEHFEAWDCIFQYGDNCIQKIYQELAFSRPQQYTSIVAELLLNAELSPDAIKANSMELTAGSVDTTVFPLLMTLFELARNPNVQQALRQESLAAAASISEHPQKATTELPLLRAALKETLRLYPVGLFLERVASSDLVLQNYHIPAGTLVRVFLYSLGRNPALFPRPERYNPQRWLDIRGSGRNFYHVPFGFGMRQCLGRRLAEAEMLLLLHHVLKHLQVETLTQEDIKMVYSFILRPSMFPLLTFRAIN
Procedure: (§1) An enzyme enriched microsomal fraction was prepared from cellular lysates and subsequently used as the enzyme source for determining inhibitor IC50s. […] Enzyme assays for inhibitor screening employed CYP11B2 and CYP11B1 enzyme enriched microsomes and were run at the Km of the respective substrates. Products of the enzyme reactions, aldosterone for CYP11B2 or cortisol for CYP11B1, were measured by LC-MS. Assays were run under conditions of less than 20% substrate turnover. Inhibitor IC50s were generated by determining the product formation in the absence or presence of inhibitor at various concentrations. In the absence of the test compound, the product formed (Pt) in each data set was defined as 100% activity. In the absence of enzyme, the product formed (Pb) in each data set was defined as 0% activity. The percent activity in the presence of each inhibitor was calculated according to the following equation: % activity=(P−Pb)/(Pt−Pb), where P=the product formed in the presence of the inhibitor.

[2] = Cyno half life after PO dose; set-up: species or system cynomolgus monkeys; conditions: cynomolgus monkey; for half-life: in vivo, 1 mg/kg PO dose, read-out: Cyno T½ (converted)
[3] = biological target: T2, recombinant human CYP11B2 (Homo sapiens, UniProt P19099); experiment: CYP11B2 enzyme assay, enzyme enriched microsomes from V79-4 cells, aldosterone by LC-MS; type: biochemical; conditions: for Selectivity: CYP11B1 IC50/CYP11B2 IC50
T2 construct: made in house; host or cells: V79-4 cells (enzyme enriched microsomal fraction of cell lysates)
T2 sequence (P19099 25-503): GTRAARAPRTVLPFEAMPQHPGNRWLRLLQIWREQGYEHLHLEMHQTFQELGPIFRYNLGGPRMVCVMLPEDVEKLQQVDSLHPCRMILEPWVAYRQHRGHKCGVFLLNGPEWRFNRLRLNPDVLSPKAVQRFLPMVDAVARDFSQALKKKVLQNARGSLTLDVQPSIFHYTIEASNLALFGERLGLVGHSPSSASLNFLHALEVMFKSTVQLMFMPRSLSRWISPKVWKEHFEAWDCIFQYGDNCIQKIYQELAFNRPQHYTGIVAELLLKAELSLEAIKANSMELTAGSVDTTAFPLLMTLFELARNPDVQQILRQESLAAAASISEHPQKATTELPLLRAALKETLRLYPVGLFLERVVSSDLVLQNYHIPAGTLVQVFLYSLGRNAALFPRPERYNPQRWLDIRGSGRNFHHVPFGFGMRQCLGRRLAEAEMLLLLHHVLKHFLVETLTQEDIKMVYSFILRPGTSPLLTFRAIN
Procedure: as §1

[4] = Cyno liver microsome stability; type: in vitro ADME, cynomolgus monkey; conditions: for Cyno LM Stability: % Compound remaining at 65 min in cyno liver microsomes; for metabolic stability when exposed to cynomolgus monkey liver microsomes: compared with pyridine counterpart Example 76
[5] = Rat liver microsome stability; type: in vitro ADME; conditions: for Rat LM Stability: % Compound remaining at 65 min in rat liver microsomes
[6] = IC50 ranges, run at Km of 11-deoxycortisol, read-out: hCYP11B1 IC50
[7] = Table 3 comparison, read-out: CYP11B1 IC50
[8] = IC50 ranges, run at Km of 11-deoxycorticosterone, read-out: hCYP11B2 IC50
[9] = Table 3 comparison, read-out: CYP11B2 IC50

In the case of `Fc1cc2nc(-c3cncnc3C(F)F)n(C3CC3)c2cc1F` [Example 27, 1-Cyclopropyl-2-(4-(difluoromethyl)pyrimidin-5-yl)-5,6-difluoro-1H-benzo[d]imidazole], the IC50 [1, 6] is reported as 1000 to 10000 nM, the IC50 [1, 7] is reported as 4720 nM and the “in vivo half-lives in cynomolgus monkeys” value [2] is reported as “long in vivo half-lives”. It also gave a half-life [2] of 16.9 h, an IC50 [3, 8] of 1 to 100 nM and an IC50 [3, 9] of 17 nM. For the same compound, the “Cyno LM Stability” value [4] was 106% and the “metabolic stability when exposed to cynomolgus monkey liver microsomes” value [4] was “much greater metabolic stability”.

With `Fc1cc2nc(-c3cncnc3C(F)(F)F)n(C3CC3)c2cc1F` [Example 30, 1-Cyclopropyl-5,6-difluoro-2-(4-(trifluoromethyl)pyrimidin-5-yl)-1H-benzo[d]imidazole] the IC50 [1, 6] was 1000 to 10000 nM, the IC50 [1, 7] was 6370 nM and the “in vivo half-lives in cynomolgus monkeys” value [2] was “long in vivo half-lives”. For the same compound, the half-life [2] was 37.5 h, the Selectivity [3] was 199 and the IC50 [3, 8] was 1 to 100 nM. The IC50 [3, 9] was 32 nM, the “Cyno LM Stability” value [4] was 99% and the “metabolic stability when exposed to cynomolgus monkey liver microsomes” value [4] was “much greater metabolic stability”. The “Rat LM Stability” value [5] was 108% and the “metabolic stability when exposed to rat liver microsomes” value ([5]; compared with pyridine counterpart Example 76) was “much greater metabolic stability”.

Compound `Fc1ccc2nc(-c3cncnc3)n(C3CC3)c2c1` [Example 1, 1-Cyclopropyl-6-fluoro-2-(pyrimidin-5-yl)-1H-benzo[d]imidazole] has an IC50 [1, 6] of 1000 to 10000 nM, an IC50 [1, 7] of 5380 nM and a Selectivity [3] of 134. For the same compound, the IC50 [3, 8] was 1 to 100 nM, the IC50 [3, 9] was 40 nM and the “Cyno LM Stability” value [4] was 70%. The “Rat LM Stability” value [5] was 0%.

For `Cc1ncncc1-c1nc2cc(F)c(F)cc2n1C1CC1` [Example 44, 1-Cyclopropyl-5,6-difluoro-2-(4-methylpyrimidin-5-yl)-1H-benzo[d]imidazole], the IC50 [1, 6] was 1000 to 10000 nM, the IC50 [1, 7] was 4160 nM and the Selectivity [3] was 244. The IC50 [3, 8] was 1 to 100 nM, the IC50 [3, 9] was 17 nM and the “Cyno LM Stability” value [4] was 72%. The “Rat LM Stability” value [5] was 96%.

Compound `N#Cc1ncncc1-c1nc2cc(F)c(F)cc2n1C1CC1` [Example 46, 5-(1-Cyclopropyl-5,6-difluoro-1H-benzo[d]imidazol-2-yl) pyrimidine-4-carbonitrile] has an IC50 [1, 6] of 1000 to 10000 nM and an IC50 [3, 8] of 1 to 100 nM.

For `CC(=O)NCCc1ncncc1-c1nc2cc(F)c(F)cc2n1C1CC1` [Example 59, N-(2-(5-(1-Cyclopropyl-5,6-difluoro-1H-benzo[d]imidazol-2-yl)pyrimidin-4-yl)ethyl)acetamide], the IC50 [1, 6] was > 10000 nM and the IC50 [3, 8] was 1000 to 10000 nM.

With `CCn1c(-c2cncnc2C(F)(F)F)nc2cc(F)c(F)cc21` [Example 67, 1-Ethyl-5,6-difluoro-2-(4-(trifluoromethyl)pyrimidin-5-yl)-1H-benzo[d]imidazole] the IC50 [1, 6] was > 10000 nM and the IC50 [3, 8] was 100 to 1000 nM.

For `N#Cc1ccc2nc(-c3cncnc3C(F)(F)F)n(C3CC3)c2n1` [Example 65, 3-Cyclopropyl-2-(4-(trifluoromethyl)pyrimidin-5-yl)-3H-imidazo[4,5-b]pyridine-5-carbonitrile], the IC50 [1, 6] was 1000 to 10000 nM and the IC50 [3, 8] was 1 to 100 nM.

For `O=C(O)c1ccc2nc(-c3cncnc3C(F)(F)F)n(C3CC3)c2c1` [Example 70, 1-Cyclopropyl-2-(4-(trifluoromethyl)pyrimidin-5-yl)-1H-benzo[d]imidazole-6-carboxylic acid], the IC50 [1, 6] was > 10000 nM and the IC50 [3, 8] was > 10000 nM.

With `CNc1ncncc1-c1nc2ccc(F)cc2n1C1CC1` [Example 12, 5-(1-Cyclopropyl-6-fluoro-1H-benzo[d]imidazol-2-yl)-N-methylpyrimidin-4-amine] the IC50 [1, 6] was 100 to 1000 nM and the IC50 [3, 8] was 1 to 100 nM.

With `Cc1ncncc1-c1nc2cnc(C#N)cc2n1C1CC1` [Example 56, 1-Cyclopropyl-2-(4-methylpyrimidin-5-yl)-1H-imidazo[4,5-c]pyridine-6-carbonitrile] the IC50 [1, 6] was > 10000 nM and the IC50 [3, 8] was 100 to 1000 nM.

Work on `Cc1ncncc1-c1nc2ccc(C#N)nc2n1C1CC1` [Example 52, 3-Cyclopropyl-2-(4-methylpyrimidin-5-yl)-3H-imidazo[4,5-b]pyridine-5-carbonitrile] yielded an IC50 [1, 6] of 1000 to 10000 nM and an IC50 [3, 8] of 1 to 100 nM.

Compound `CC(C)c1ncncc1-c1nc2ccc(Cl)cc2n1C1CC1` [Example 24, 6-Chloro-1-cyclopropyl-2-(4-isopropylpyrimidin-5-yl)-1H-benzo[d]imidazole] has an IC50 [1, 6] of 1000 to 10000 nM and an IC50 [3, 8] of 1 to 100 nM.

With `CC(=O)NCc1ncncc1-c1nc2ccc(F)cc2n1C1CC1` [Example 19, N-((5-(1-Cyclopropyl-6-fluoro-1H-benzo[d]imidazol-2-yl)pyrimidin-4-yl)methyl)acetamide] the IC50 [1, 6] was > 10000 nM and the IC50 [3, 8] was 1000 to 10000 nM.

Work on `Cc1ncncc1-c1nc2ccc(C#N)cc2n1C1CC1` [Example 21, 1-Cyclopropyl-2-(4-methylpyrimidin-5-yl)-1H-benzo[d]imidazole-6-carbonitrile] yielded an IC50 [1, 6] of 1000 to 10000 nM and an IC50 [3, 8] of 1 to 100 nM.

`COCCNc1ncncc1-c1nc2cc(F)c(F)cc2n1C1CC1` [Example 33, 5-(1-Cyclopropyl-5,6-difluoro-1H-benzo[d]imidazol-2-yl)-N-(2-methoxyethyl)pyrimidin-4-amine] gave an IC50 [1, 6] of 1000 to 10000 nM and an IC50 [3, 8] of 1 to 100 nM.

`N#Cc1ccc2nc(-c3cncnc3C(F)F)n(C3CC3)c2c1` [Example 54, 1-Cyclopropyl-2-(4-(difluoromethyl)pyrimidin-5-yl)-1H-benzo[d]imidazole-6-carbonitrile] gave an IC50 [1, 6] of 1000 to 10000 nM and an IC50 [3, 8] of 1 to 100 nM.

Work on `Cc1ncncc1-c1nc2ccc(F)cc2n1C1CC1` [Example 4, 1-Cyclopropyl-6-fluoro-2-(4-methylpyrimidin-5-yl)-1H-benzo[d]imidazole] yielded an IC50 [1, 6] of 1000 to 10000 nM and an IC50 [3, 8] of 1 to 100 nM.

For `Fc1cc2nc(-c3cncnc3NCC(F)(F)F)n(C3CC3)c2cc1F` [Example 36, 5-(1-Cyclopropyl-5,6-difluoro-1H-benzo[d]imidazol-2-yl)-N-(2,2,2-trifluoroethyl)pyrimidin-4-amine], the IC50 [1, 6] was 100 to 1000 nM and the IC50 [3, 8] was 1 to 100 nM.

For `COc1ncncc1-c1nc2ccc(F)cc2n1C1CC1` [Example 6, 1-Cyclopropyl-6-fluoro-2-(4-methoxypyrimidin-5-yl)-1H-benzo[d]imidazole], the IC50 [1, 6] was > 10000 nM and the IC50 [3, 8] was 100 to 1000 nM.

In the case of `CNc1ncncc1-c1nc2cc(F)c(F)cc2n1C1CC1` [Example 31, 5-(1-Cyclopropyl-5,6-difluoro-1H-benzo[d]imidazol-2-yl)-N-methylpyrimidin-4-amine], the IC50 [1, 6] is reported as 100 to 1000 nM and the IC50 [3, 8] is reported as 1 to 100 nM.

In the case of `N#Cc1ncncc1-c1nc2ccc(F)cc2n1C1CC1` [Example 10, 5-(1-Cyclopropyl-6-fluoro-1H-benzo[d]imidazol-2-yl)pyrimidine-4-carbonitrile], the IC50 [1, 6] is reported as 1000 to 10000 nM and the IC50 [3, 8] is reported as 1 to 100 nM.

Compound `CC(F)(F)c1ncncc1-c1nc2cc(F)c(F)cc2n1C1CC1` [Example 71, 1-Cyclopropyl-2-(4-(1,1-difluoroethyl)pyrimidin-5-yl)-5,6-difluoro-1H-benzo[d]imidazole] has an IC50 [1, 6] of 1000 to 10000 nM and an IC50 [3, 8] of 1 to 100 nM.

With `CC(C)c1ncncc1-c1nc2ccc(C#N)cc2n1C1CC1` [Example 28, 1-Cyclopropyl-2-(4-isopropylpyrimidin-5-yl)-1H-benzo[d]imidazole-6-carbonitrile] the IC50 [1, 6] was 1000 to 10000 nM and the IC50 [3, 8] was 1 to 100 nM.

`FC(F)c1ncncc1-c1nc2ccc(Cl)cc2n1C1CC1` [Example 50, 6-Chloro-1-cyclopropyl-2-(4-(difluoromethyl)pyrimidin-5-yl)-1H-benzo[d]imidazole] showed an IC50 [1, 6] of 1000 to 10000 nM and an IC50 [3, 8] of 1 to 100 nM.
